The subject of test [1] is males. As to the kind of experiment: Bioassay of HPLC-purified peak. It counts as in vivo. As to conditions: purified peak with retention time of 9.7 minutes. How it is done:
A Thermo Finnigan LCQ Deca XP Max was used with electrospray ionization in positive ion mode in the 50-1000 AMU range. The Thermo Separation spectra HPLC system consisted of a P4000 quaternary pump, an AS 3000 auto sampler, and a UV 6000 diode array detector. The solvents were water with (a) 0.1% formic acid and (b) 90% acetonitrile-10% water with 10 mM ammonium formate. The column temperature was maintained at 60° C. and a solvent flow of 1.0 ml/min. The reversed phase column (PLRP-S Polymeric reversed phase column, 250×4.6 mmid, Varian Inc.) was eluted with a solvent composition starting with 90:10 (a,b) for 2 minutes, followed by a gradient to 5:95 in 20 minutes and an additional 5 minutes at 5:95. Ultraviolet absorption was monitored at 190 and 400 nm. Solvent flow between the ultraviolet detector and mass spectroscopy electrospray interface split 9:1 with a low-volume micro needle P450 splitter valve (Upchurch Scientific, Oak Harbor, Wash.), making it possible to obtain spectra of eluted compounds and simultaneously collect 90% of the injected material for bioassay. […] This was confirmed to be ascr#1 using NMR analysis.

The test system of test [2] is P. pacificus. Nature of the test: Dauer formation assay. Type of test: in vivo, Pristionchus pacificus. The following applies: even at very high concentrations (20 μM). The protocol: Dauer formation assays were performed as described in Ogawa et al., Curr. Biol. 19:67-71 (2009), which is hereby incorporated by reference in its entirety, using heat- or kanamycin-killed E. coli OP50. Synthetic compounds were dissolved in ethanol (0.5 mM, stock solution) and combined with water to make a […] and subsequently added to 3 mL NGM-agar without peptone ([…], 0.3, 0.1 μM final concentrations).

In test [3] the test system is P. pacificus strain RSB020. As to the kind of experiment: Mouth-form dimorphism assay. It counts as in vivo, Pristionchus pacificus. As to conditions: high concentrations. The protocol: Mouth-form dimorphism assays were performed using P. pacificus strain RSB020. The synthetic compounds dissolved in ethanol (0.5 mM) were diluted with water to make 100 μl solution and subsequently added to 3 mL NGM-agar (1 μM final concentration). The assay plates were seeded with 50 μl OP50 culture in LB medium and incubated overnight at 20° C. to allow bacterial growth. Each replicate included the progeny of two mothers, which were picked as adult hermaphrodites of a consistent age (carrying 4-6 eggs) and which were all from the same P. pacificus culture plate. Following the placement of mothers on assay plates, plates were kept at 20° C. for six days, such that the entire broods were adults at the time of screening. A random sample of 50 hermaphrodite progeny was screened per plate. All animals were screened by differential interference contrast (DIC) microscopy on a Zeiss Axiskop. The following discrete characters were used to discriminate eurystomatous from stenostomatous individuals, respectively: (1) claw-shaped vs. flint-shaped (i.e. dorsoventrally symmetrical) dorsal tooth; (2) presence vs. absence of a subventral tooth; (3) strongly vs. weakly sclerotized stomatal walls. No intermediate mouth-forms were observed. Experiments were conducted in triplicate for each treatment. In assays of responses to compounds of several concentrations (1, 0.3, 0.1, 0.03, 0.01 μM final concentrations), experiments were performed as described above, with the following modifications. To allow greater resolution of responses to lower concentrations, 60 randomly screened individuals in each of five replicates per concentration per compound were assayed. All concentration-curve experiments were performed in parallel using mothers picked randomly from the same two source populations. To prepare large numbers of individual mothers for these experiments, source populations were established from virgin hermaphrodites to constrain the presence of males and were conditioned to well-fed and ambient conditions for at least one generation before mothers were picked for the assays.

Test [4] concerns several of the tested nematode species. As to the kind of experiment: Retention assay, several nematode species. As to conditions: 1 nM, 1 μM and 1 mM tested. It counts as in vivo. The protocol: (§1) OP50 E. coli was grown on a standard 5 cm agar plate (made with standard Nematode Growth Medium). The bacterial lawn was 16 mm in diameter and was grown overnight at 20° C. before being used in trials. Two 4 mm spots (0.6 μL) were placed on opposite sides of the bacterial lawn (using a transparent template to guide spot placement), and several minutes elapsed for the liquid to settle in before placing nematodes down on the assay. Recording began immediately upon worm placement. 0.6 μL of the control was placed on one side of the lawn, and 0.6 μL of the experimental cue was placed on the other side of the lawn, changing the location of the cue throughout trials between left/right and top/bottom to avoid bias.
Nematodes were isolated by gender at the L4 stage the day before being used in trials as developed adults. Worms were evenly divided and placed at two points equidistant from the foci of the scoring region. Trials were recorded for 20 minutes, and frames were collected for analysis at 1 frame per second. Results were averaged from at least three different trials. For every nematode species in this study, a different total number of worms (using water in both scoring regions) was tested to determine the minimum number of worms necessary for consistent unbiased results over a 20 minute trial. The total number of worms used in the multiple species assays depended on that species' optimal parameters. 10 worms were used for P. redivivus males and females, 20 worms were used for C. elegans males and O. dolichuridae males, and 14 worms were used for S. glaseri males. The Automated Software was used to compare worm occupancy in each scoring region over time, and the Chemotaxis Index (Bargmann et al., Cell 74:515-27 (1993), which is hereby incorporated by reference in its entirety) was adapted to score preference or avoidance to each ascaroside.
A video camera attached to the microscope produced a digital video stream, which was then analyzed. The ratio of the time the average worm spent in each region of interest was calculated for every trial. For ease of implementation, all worms in a single experiment were assumed to be roughly the same size. Thus worm pixels were counted instead of whole worms, allowing fractions of a worm in the region of interest to be taken into account. It also eliminated the need for a shape-based worm identification algorithm, and allowed each frame to be analyzed independently. A band-pass filter was applied to each frame to eliminate the effect of uneven lighting and also accentuate the worms against the background. The worm was then identified after thresholding the filtered image. Throughout each experiment, the locations and sizes of the regions of interest were known. Through the filtering described above, it is known which pixels are occupied by worms and which ones are not. Thus, the ratio of worm-pixels to all pixels inside the region of interest can be calculated to produce the worm-occupancy ratio. This calculation was done for every frame, giving a plot output of worm-occupancy ratio vs. time for each region.

The subject of test [5] is C. elegans males. As to the kind of experiment: Retention assay, C. elegans males. It counts as in vivo. How it is done: (§2) OP50 E. coli was grown on a standard 5 cm agar plate (made with standard Nematode Growth Medium). The bacterial lawn was 16 mm in diameter and was grown overnight at 20° C. before being used in trials. Two 4 mm spots (0.6 μL) were placed on opposite sides of the bacterial lawn (using a transparent template to guide spot placement), and several minutes elapsed for the liquid to settle in before placing nematodes down on the assay. Recording began immediately upon worm placement. […]
(§3) Nematodes were isolated by gender at the L4 stage the day before being used in trials as developed adults. […] Trials were recorded for 20 minutes, and frames were collected for analysis at 1 frame per second. […]
(§4) A video camera attached to the microscope produced a digital video stream, which was then analyzed. The ratio of the time the average worm spent in each region of interest was calculated for every trial. […] Thus worm pixels were counted instead of whole worms, allowing fractions of a worm in the region of interest to be taken into account. It also eliminated the need for a shape-based worm identification algorithm, and allowed each frame to be analyzed independently. […] Thus, the ratio of worm-pixels to all pixels inside the region of interest can be calculated to produce the worm-occupancy ratio. […]

The subject of test [6] is S. glaseri males. As to the kind of experiment: Retention assay, S. glaseri males. Type of test: in vivo. The protocol:
as §2, §3, §4

The subject of test [7] is P. redivivus males and females. As to the kind of experiment: Retention assay, P. redivivus. It counts as in vivo. How it is done:
as §1
Nematodes were isolated by gender at the L4 stage the day before being used in trials as developed adults. Worms were evenly divided and placed at two points equidistant from the foci of the scoring region. Trials were recorded for 20 minutes, and frames were collected for analysis at 1 frame per second. Results were averaged from at least three different trials. For every nematode species in this study, a different total number of worms (using water in both scoring regions) was tested to determine the minimum number of worms necessary for consistent unbiased results over a 20 minute trial. The total number of worms used in the multiple species assays depended on that species' optimal parameters. […]
as §4

The subject of test [8] is C. elegans. Nature of the test: Aggregation assay. Type of test: in vivo. The protocol: Aggregation behavior of worms was measured using assays reported in de Bono & Bargmann, Cell 94:679-89 (1998), which is hereby incorporated by reference in its entirety. Aggregation assays were conducted on standard NGM plates. Plates containing indole ascarosides were made by adding the indole ascaroside stock solution to the NGM media before they were poured onto the plates. These plates were dried at room temperature for 2 to 3 days. Control plates were treated similarly, except that ethanol solutions instead of icas solutions were added to the plates, corresponding to the amount of ethanol introduced via the icas solutions. Final ethanol concentrations of the plates were below 0.1% for all conditions. After drying, both control plates and plates containing indole ascarosides were seeded with 150 μl of an overnight culture of E. coli OP50 using a micropipette, and were allowed to dry for 2 days at room temperature. For “low worm density” experiments, 20 worms were placed onto the lawn and left at 20° C. for 3 hours. For “high worm density” experiments, approximately 120 worms were placed onto the bacterial lawn and left at 20° C. for 3 hours. Aggregation behavior was quantified as the number of animals that were in touch with two or more animals at greater than 50% of their body length.

The test system of test [9] is C. elegans. The following applies: cited from earlier work.
The test system of test [10] is C. elegans. As to conditions: Srinivasan et al. 2012; cited from earlier work.
The test system of test [11] is C. elegans hermaphrodites and males. As to the kind of experiment: Spot attraction assay. It counts as in vivo. How it is done:
The spot attraction assays were conducted according to a previously reported method (Pungaliya et al., PNAS 106:7708-13 (2009); Srinivasan et al., Nature 454:1115-18 (2008), which are hereby incorporated by reference in their entirety). For both C. elegans hermaphrodites and males, 50-60 worms were harvested daily at the fourth larval stage (L4) and stored segregatedly by sex at 20° C. overnight, to be used as young adults the following day. For the competition experiments, two conditions were used: 120 nM ascr#3 and 10 nM icas#3 (Condition 1), or 12 μM ascr#3 and 1 μM icas#3 (Condition 2) in water containing 10% ethanol. Aliquots were stored at −20° C. in 20 μL tubes. 10% ethanol in water was used as control.
Attraction assays with hbas#3 were conducted as previously reported (Srinivasan et al., Nature 454:1115-18 (2008); Pungaliya et al., Proc. Natl. Acad. Sci. U.S.A. 106:7708-13 (2009), which are hereby incorporated by reference in their entirety). For the attraction assays, 50-60 hermaphrodite worms were harvested daily at the early fourth larval stage (L4) and stored at 20° C. overnight to be used as young adults the following day. Hbas#3 was dissolved in water containing 10% ethanol. Aliquots were stored at −20° C. in 20 μL tubes. 10% ethanol in water was used as control.

[12] abbreviates: Butcher et al., Org. Lett. 2009.

Entries after “also recorded” stand apart in the source; their conditions may differ.

With `C[C@H](CCCCC(=O)O)O[C@@H]1O[C@@H](C)[C@H](O)C[C@H]1O` [ascr#1, reference compound], in [1], the “activity in the bioassay” value is “active to males”. In addition, the dauer induction entry in [2] is on record as “does not induce dauer formation; also recorded: no dauer-inducing activity”. For the same molecule, in [3], the “induction of the eurystomatous mouth form” value is recorded as “weaker induction of the eurystomatous mouth form”. In addition, the “preference for areas conditioned by the ascaroside” value in test [4] is reported as “preferred”.
Regarding `CC1O[C@@H](O[C@H](C)CCCCCCC(=O)O)C(O)C[C@H]1O` (some centres unmarked) [ascr#10], the “concentration of conditioned regions preferred (activity threshold)” value in test [5] was 1 µM; in [6], 1 mM; in [7] (males), 1 mM. Besides, the “preference for areas conditioned by the ascaroside” value in test [4] was “preferred”.
As for `C[C@H](CCC(=O)O)O[C@@H]1O[C@@H](C)[C@H](OC(=O)c2c[nH]c3ccccc23)C[C@H]1O` [icas#9, reference compound], the “concentrations at which active as hermaphrodite attractants and aggregation signals” value in [8] (in vivo) is “femtomolar to picomolar”. In test [8] (low worm density, solitary and social hermaphrodites), the aggregation of hermaphrodites result is “increased aggregation of both solitary and social hermaphrodites”. In test [9] (setting [12]), the dauer-inducing activity entry is “moderate dauer-inducing activity” and the “shape of dauer response curve” value was “bell-shaped response curve”. Moreover, in [9] (shown previously), the “promotion of dauer entry” value was “individually promote dauer entry”. For the same molecule, the “aggregation in C. elegans” value in test [10] is reported as “aggregating stimulant”. Moreover, the “response of P. redivivus females” value in test [7] (females) is “repeled”. Further, the “response of P. redivivus males” value in [7] (males) is recorded as “elicited no response”. Besides, the “attraction in the spot attraction assay” value in [11] (1 pmol, N2 hermaphrodites and him-5 males) is given as “attractive to both C. elegans sexes”. Moreover, in [11] (high concentrations, males and hermaphrodites), the “attraction in the spot attraction assay” value is “attracted both males and hermaphrodites”. The attraction of hermaphrodites result in [11] (low concentrations, N2 hermaphrodites) was “strongly attracted”. In test [11] (low concentrations, males), the attraction of males result is “not attracted; also recorded: not males”.

These data come from patent US9445596B2, “Small molecule compounds for the control of nematodes” (California Institute of Technology, priority 2011, dated 2016).
